This note sets out measurements from US20110105436A1, “HETEROARYL COMPOUNDS, COMPOSITIONS, AND METHODS OF USE IN CANCER TREATMENT” (AUCKLAND UNISERVICES LIMITED, priority 2008, published 2011).

Assay type in all cases: cell-based
Data set [1] relates to RCC4 and RCC4/VHL cells. Put plainly: DNA damage: comet assay and p53 immunoblot. The method, then:
(§1) B. XTT assay in RCC4 and RCC4/VHL in presence of STF-62247 (0-40 μM). Each point of the cell survival is calculated by the average of three different experiments in duplicate as the percent of treated on untreated plate. The error bars are represented as the standard error of the mean (SEM) C. qRT-PCR for Glutl, VEGF, PDF and PGK in RCC4 cells with or without HIF-1a, HIF-2a shRNA and in RCC4/VHL. D. Hoescht staining in RCC4 and RCC4/VHL cells with 1.25 μM of STF-62247 for 2 days. Camptothecin was used as positive control E. FACS analysis for apoptosis after an annexin V-FITC staining in presence or absence of propidium iodine (PI) in cells after a treatment in same conditions than in C. F. Immunoblot for active caspase-3 in RCC4 and RCC4/VHL following treatment with 1.25 μM of STF-62247 for 24 hours. Staurosporine was used as positive control (0.2 μM for 24 hours). G,H. Immunostaining of caspase-3 and Ki67 respectively in SN12C and SN12C+shVHL tumor samples untreated or treated with 30 μM of STF-62247.1. Immunoblot for p53 and SerlS phospho-p53 in RCC4 and RCC4/VHL cells after a treatment with 1.25 μM of STF-62247 or doxorubicin for 24 hours.

Data set [2] relates to RCC4 and RCC4/VHL cells. Put plainly: Apoptosis by Hoechst, Annexin V staining and caspase-3. Conditions: in vitro, VHL-deficient cells, 1.25 μM; confirmed by caspase-3 in tumor sections. Here is the method: as §1
In another data set the test system is RCC4 cells. Put plainly: XTT assay in VHL-deficient RCC4 cells. The gist of the method: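 RCC4 cells with and without VHL seeded at 5000/well, then exposed next day to serially diluted compound (DMSO vehicle) for four days. Viability read by XTT (0.3 mg/ml) with PMS, 1-2 h at 37° C, absorbance at 450 nm.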
Data set [3] has as its system RCC4, RCC4/VHL, SN12C and SN12C-VHL shRNA cells. Put plainly: Clonogenic cell survival assay. The method, then: Clonogenic Cell Survival Assay. RCC4, RCC4/VHL, SN12C and SN12C-VHL shRNA were plated at 300 cells per 60 mm tissue culture dish. The following day, vehicle or STF-62247 was added and cells were incubated in the presence of drug for 10 days in RCC4 and RCC4/VHL and 7-10 days for SN12C and SN12C-VHL shRNA. The colonies were stained with crystal violet, and quantified. Each experiment was performed at least three times in triplicate.
A. RCC4 and RCC4/VHL cells were labeled with EYFP and the effect of STF-62247 was monitored by fluorescence in each cell type separately. Cells are pseudocolored. B. Clonogenic assay in RCC4, RCC4/VHL, SN12C, SN12C-VHL shRNA cells in the presence of STF-62247 (0-30 μM). Each point of the cell survival is calculated by the average of three different experiments in triplicate as the percent of treated on untreated plate. The error bars represented the standard error of the mean (SEM). C. Upper Panel, clonogenic assay in RCC4 infected with HIF-1α or HIF-2α shRNA by retroviral infection in presence of drug in same conditions described above. Bottom panel, HIF-1α or HIF-2α protein expression evaluated by western blot in RCC4 cells with HIF-1α or HIF-2α shRNA. Tubulin is used as loading control. […] Tumor volume was measured every 2-3 days and data are represented in fold. Five tumors in each condition were analyzed where * p<0.05, **p<0.01 and ***p<0.005.

Structures are written as SMILES.

In the case of `Cc1cccc(Nc2nc(-c3ccncc3)cs2)c1` [Compound 5, N-(3-Methylphenyl)-4-(4-pyridinyl)-1,3-thiazol-2-amine], the “phosphorylation of p53 on serine 15 and total p53 levels” value in the data set on RCC4 and RCC4/VHL cells [1] (1.25 μM, 24 hours, FIG. 7I) is listed as “unaffected”. For the same compound, the “DNA damage by comet assay” value in the data set on RCC4 and RCC4/VHL cells [1] (data not shown) is recorded as “did not induce DNA damage”. In the data set with RCC4 and RCC4/VHL cells [2], the induction of apoptosis result was “did not induce apoptosis”. In the data set with RCC4 cells (Homo sapiens, 96 h, Table 1, XTT assay, VHL-deficient RCC4 cells, four days), this compound gave an IC50 of 2100 nM. Further, the “viability in a short term assay” value with RCC4 cells (XTT, 0-40 μM, FIG. 7B) is recorded as “decreases the viability of VHL-deficient cells in a short term assay”. Moreover, the “dependence of cytotoxicity on HIF” value in data set [3] (RCC4 with HIF-1α or HIF-2α shRNA, RCC4/VHL with stable HIF-2α) was “induces cytotoxicity in VHL-null cells in a HIF-independent manner”. In addition, the “selective toxicity in clonogenic assays” value in data set [3] (VHL-deficient versus VHL wild-type cells, 0-30 μM, FIG. 1B) is “selectively toxic to VHL-deficient cells compared to their VHL wild-type counterparts”.
